Measurements: US4988730A, “Diphenkylpropylamines for the therapy of heart disease” (Chinoin Gyogyszer es Vegyeszeti Termekek Gyar RT, priority 1986, dated 1991)
Where two headings read alike, the source gives them in different places.

Columns and labels:
[1] = vasopressin angina of rats (acute coronary failure induced by vasopressin); assay type: in vivo; details: for ED50: Rattus norvegicus
Description: Thus, such derivatives forming a more preferred group of the compounds of the formula (I), wherein R^1 is as defined above, R^2 means a methyl group, R^3 is halogen and R^4, R^5 and R^6 stand for hydrogen, show significant antianginal effects. In these derivatives, the halogen may be fluorine, chlorine or bromine. […] Thus, the above compound of the invention is about 42 times as effective as fendiline under the same conditions.
(§1) In the case of the vasopressin angina of rats [Papp and Szekeres: Arch. int. Pharmacodyn. 160, 147 (1966)], the antianginal activity measured at the 2nd minute following the intravenous administration or at the 60th minute after oral administration, respectively, as well as the intravenous and oral acute toxicity values, the therapeutic indices and the quotient of the therapeutic ratio of KHL-8430 to that of fendiline as measured in rats are summarized in Table 1.

[2] = acute toxicity in rats (LD50, therapeutic indices); assay type: in vivo; details: for LD50 / selectivity ratio: rat, in vivo; for LD50: acute toxicity; for selectivity ratio: LD50 and ED50 in vasopressin angina
Description: as §1

[3] = vasopressin-induced angina, comparison of calcium antagonists (table 2); assay type: in vivo; details: for BP/Antianginal ED50 / ratio (row drawing 12; DP/dt max/antianginal by arithmetic): ratio, table 2
[4] = antiarrhythmic ("antifibrillatory") action, fibrillation threshold; assay type: in vivo; details: table 2
[5] = "two-step" coronary occlusion of Harris, extrasystolic activity in conscious dogs; assay type: in vivo; details: for extrasystolic activity following by 24 hours the two-step coronary occlusion: conscious dogs, KHL-8430 2 mg/kg intravenous
[6] = myocardial ischaemia induced by coronary occlusion in dogs; assay type: in vivo; details: versus fendiline
Description: The myocardial ischaemia induced by coronary occlusion in dogs [Szekeres e al.: J. Pharm.

[7] = anti-ischaemic protective action after an oral dose; assay type: in vivo
[8] = tested on: auricular and ventricular muscle of the isolated cat heart; assay: antiarrhythmic action in auricular and ventricular muscle of the isolated cat heart
[9] = haemodynamic actions (blood pressure, heart rate, left ventricle contractility); assay type: in vivo; details: i.v.; KHL-8430, verapamil and fendiline
[10] = haemodynamic study on dogs during coronary occlusion; assay type: in vivo; details: in comparison with fendiline, verapamil or nifedipine
[11] = ventricular extrasystoles developing under the effect of a coronary occlusion; assay type: in vivo; details: as opposed to fendiline
[12] = iv, 2 min, i.v. at 2 minutes before inducing the angina by i.v. 2 NE/kg of vasopressin, read-out: ED50, acute coronary failure induced by vasopressin
[13] = iv, rats, i.v., read-out: LD50, intravenous
[14] = iv, rats, i.v., read-out: therapeutic index, intravenous (head is drawing 4)
[15] = rats, oral, read-out: LD50, oral
[16] = rats, oral, read-out: therapeutic index, oral (head is drawing 5)
[17] = 1 h, vasopressin angina, 60th minute after oral administration, read-out: ED50, antianginal activity, oral
[18] = iv, 2 min, vasopressin angina, 2nd minute following i.v. administration, read-out: ED50, antianginal activity, intravenous

Compound | ED50 [1, 12] [mg/kg] | LD50 [2, 13] [mg/kg] | selectivity ratio [2, 14] | LD50 [2, 15] [mg/kg] | selectivity ratio [2, 16] | BP/Antianginal ED50 [3] | ratio (row drawing 12; DP/dt max/antianginal by arithmetic) [3] | ratio (row drawing 11; BP/FFT by arithmetic) [4] | ratio (row drawing 13; DP/dt max/FFT by arithmetic) [4] | ED50 [1, 17] [mg/kg] | ED50 [1, 18] [mg/kg] | extrasystolic activity following by 24 hours the two-step coronary occlusion [5] | also measured
CC(NCCC(c1ccccc1)c1ccccc1)c1ccc(Cl)cc1.Cl (centres unmarked) [2-(4-chlorophenyl)-6,6-diphenyl-3-azahexane hydrochloride] | 0.054 |  |  |  |  |  |  |  |  |  |  |  | times as effective as fendiline ([1]; vasopressin angina, i.v., same conditions): about 42 times
CC(NCCC(c1ccccc1)c1ccccc1)c1ccccc1 (stereo not drawn) [Fendiline, N-(3,3-diphenylpropyl)-α-methylbenzylamine, reference compound] | 2.3 | 12.2 | 5.3 | 800 | 40 | 0.62 | 0.41 | 0.26 | 0.175 | 20 | 2.3 | no significant effect | 
COc1ccc(C(C)NCCC(c2ccccc2)c2ccccc2)cc1OC.Cl (centres unmarked) [KHL-8430, 2-(3,4-Dimethoxyphenyl)-6,6-diphenyl-3-azahexane hydrochloride] |  | 16 | 47.1 | 1400 | 167 | 3.75 | 10.00 | 1.25 | 3.33 | 8.4 | 0.34 | significantly lowered | Quotient of the therapeutic ratios, intravenous ([2]; rats, i.v., therapeutic ratio of KHL-8430 to that of fendiline): 8.89; Quotient of the therapeutic ratios, oral ([2]; rats, oral, therapeutic ratio of KHL-8430 to that of fendiline): 4.17; toxicity on intravenous and oral administrations ([2]; versus fendiline): less toxic than the reference compound; decrease of myocardial ischaemia induced by coronary occlusion ([6]; intravenous or oral): decreased more strongly and with a much longer duration; strength and duration of the effect on the ischaemic state induced by coronary occlusion [6]: highly exceed that of fendiline; anti-ischaemic protective action after an oral dose [7]: very smooth; antiarrhythmic action, auricular and ventricular muscle of the isolated cat heart ([8]; compared with mexiletine): high antiarrhythmic action, which equals the effect of mexiletine; antiarrhythmic action relative to fendiline, verapamil and other calcium antagonists ([8]; isolated cat heart): by far surpassing that of fendiline, verapamil and other calcium antagonists; haemodynamical therapeutic index [9]: by far the best among the three calcium antagonists studied; strength and duration of the effect on the angina induced by vasopressin ([1]; versus fendiline): highly exceed that of fendiline; arterial blood pressure during coronary occlusion [10]: only a little lowered; heart rate during coronary occlusion [10]: not decreased; prolongation of the activation time in the ischaemic area [10]: significantly restrained; restraint of ventricular extrasystoles under coronary occlusion [11]: surprisingly capable to restrain the ventricular extrasystoles; rhythm disturbances of the heart ([5]; dog, in vivo): in a great part of the cases, the rhythm disturbances of the heart could be suspended; frequency of the extrasystoles, oral administration ([5]; oral administration): diminished in a dose-dependent manner and very significantly
COc1ccc(CCN(C)CCCC(C#N)(c2ccc(OC)c(OC)c2)C(C)C)cc1OC (centres unmarked) [verapamil] |  |  |  |  |  | 2.0 | 0.7 | 0.13 | 0.04 |  |  | no significant effect | ED50 ([3]; iv, read-out: ED50, Vasopressin-induced angina): 0.1 mg/kg
